Data as given in patent US5466716A, “Liposomal trimethylsphingosine” (The Biomembrane Institute, priority 1994, dated 1995).
Entries after “also recorded” stand apart in the source; their conditions may differ.

Legend:
protein kinase-C = protein kinase-C activity (A431 cell PK-C, liposome method, histone III-S or myelin basic protein); format: biochemical, human; conditions: histone III-S and myelin basic protein substrates, FIG. 4
Source text: FIGS. 4A and 4B depict the effect of sphingosine derivatives on protein kinase-C activity in A431 cells. The standard liposome method of Kraft and Anderson (Nature 301, 621, 1983) was used. […] In FIG. 4B radioactive incorporation into histone III-s is depicted on the ordinate. In both panels SP represents sphingosine, MMS represents N-monomethylsphingosine, DMS represents N,N-dimethylsphingosineand TMS represents N,N,N-trimethylsphingosine.
In another in vitro assay, the influence of various compounds on PK-C activity can be monitored. Certain tumor cells present high levels of PK-C activity. The human epidermoid carcinoma cell line A-431 (ATCC No. CRL 1555) can be used in a bioassay for PK-C activity as described in Igarashi et al. (supra). Briefly, phosphatidylserine (5 μg/tube) and 1,2-diolein (0.05 μg/tube), with or without an appropriate quantity of a sphingosine derivative sample, are added in an organic solvent, ethanol or ethanol/chloroform, to a 1.5 ml tube (Sarstedt) and the mixture is evaporated under a N2 stream. The lipid mixture is sonicated in about 30 μl of 20 mM Tris-HCl (pH 7.5) for 30 minutes. The resulting liposomes are supplemented with a buffer mixture comprising 25 mM Tris-HCl (pH 7.5), 10 mM MgCl2, 400 μM EDTA, 50 μM EGTA, 500 μM CaCl2, 200 μg/ml histone III-S or myelin basic protein and 20 μM γ[^32 P]-ATP (2×10^6 cpm) to a final volume of about 90 μl. […]

[1] = system: human lung cancer cell line LU-65; test: tritiated thymidine incorporation, tumor cell growth (LU-65); format: cell-based; conditions: LU-65, FIG. 2B
Source text: FIGS. 2A-2C show the effect of sphingosine derivatives on human tumor cell growth. In FIG. 2A the growth of human colonic cancer cell line COLO-205 was monitored. In FIG. 2B the growth of human lung cancer cell line LU-65 was monitored. In FIG. 2C the growth of human gastric cancer cell line MKN-74 was monitored. In each Figure the ordinate represents the percent inhibition of tritiated thymidine incorporation, the solid circles represent sphingosine, the open circles represent N,N-dimethylsphingosine and the triangles represent N,N,N-trimethylsphingosine.
An in vitro assay relying on tritiated thymidine incorporation can be used to ascertain the effect of various compounds on cell proliferation. Briefly, tumor cells are seeded in flat bottom 96 well plates (Corning, N.Y.) at a concentration of 2×10^4 cells per well. The cells are cultured for 2 days in DMEM containing various concentrations of sphingoid, which is added as a PBS solution. The medium then is supplemented with tritiated thymidine at a concentration of 0.5 μCi per well. Following a six hour incubation the cells are collected using the PHD Cell Harvester (Cambridge Technology, Cambridge, Mass.) and amounts of incorporated radioactivity are determined after adding a suitable cell lysing agent and scintillation cocktail, such as ScintiVerse BD (Fisher Scientific, Fairlawn, Calif.) which performs both functions. […]

mouse CTLL-2 cells = test: CTLL-2 cell proliferation (thymidine incorporation); format: cell-based; conditions: FIG. 10
Method: FIG. 10 depicts the effect of sphingosine derivatives on mouse T-cell line CTLL. Each point is the mean of three replicates. In the figure DMS represents N,N-dimethylsphingosine and TMS represents N,N,N-trimethylsphingosine.
For example, mouse CTLL-2 cells (ATCC No. TIB 214), a T lymphocyte cell line, were plated at 1.5×10^4 cells per well and exposed to test substances. Cell proliferation was monitored by thymidine incorporation.

HUVEC's = test: morphologic damage to endothelial cells (HUVEC's); format: cell-based, human; conditions: staurosporine 2 μM, calphostin C 5 μM
Method: A characteristic of neutrophils is the ability to adhere to activiated EC's and to migrate through the EC monolayer into the vascular or extravascular matrix. The effect of TMS on neutrophil interactions with EC's and their subsequent trans-endothelial migration thereof can be monitored in vitro using human umbilical endothelial cells (HUVEC's) (Luscinskas et al., J. Imm., 146, 1617, 1991). Neutrophils are added to a HUVEC monolayer and neutrophil-HUVEC interactions are assessed microscopically following fixation, embedding and staining of monolayer sections.
HUVEC's and culture media were purchased from Cell Systems (Kirkland, Wash.). The cells were maintained and cultured as described in Luscinskas et al., supra, with some modifications. Briefly, HUVEC's were maintained in 10 ml tissue culture flasks on a collagen type I bed obtained from rat tail (Upstate Biotechnology Inc, Lake Placid, N.Y.) with CS-complete medium, CS-growth factor and CS-AF-1 (Cell Systems). Cells became confluent within 2 to 4 days when incubated in 5% CO2 at 37° C.
The HUVEC monolayer in 24-well tissue culture plates were washed with M199 without FCS, then incubated with 1 ml/well of IL-1β (Boehringer Mannheim Biochemical Products, Indianapolis, Ind.) dissolved in M199 with 1% heat-inactivated FCS (HIFCS) at 10 U/ml. The plates were incubated at 37° C., 5% CO2 for 4 hr then washed gently with 1 ml of M199. […]

Row | Compound | ability to inhibit PK-C (protein kinase-C) | inhibition of tumor cell growth [1] | suppression of CTLL-2 cell growth (mouse CTLL-2 cells) | morphologic damage to EC's (HUVEC's)
1 | CCCCCCCCCCCCC/C=C/[C@@H](O)[C@H](CO)[N+](C)(C)C [TMS, N,N,N-trimethylsphingosine] | superior to the other compounds | superior to sphingosine; also recorded: showed an advantage over DMS | effective in suppressing CTLL-2 cell growth | 
2 | Calphostin C |  |  |  | striking morphologic damage to EC's
